We go through 24 molecules from patent US12098145B2 (Libra Therapeutics, Inc., priority 2022, dated 2024).

The subject of experiment [1] is TFEB. Briefly: TFEB translocation assay (TFEB reporter in U2OS cells, imaging). The note with it: Homo sapiens; U2OS cell line with TFEB reporter, 2 hours incubation, nucleus to cytoplasm ratio, normalized to Torin-1; read-out: TFEB Translocation pEC50 (converted). It counts as cell-based. In a few lines:
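U2OS cells stably expressing mRFP-fused TFEB reporter, switched to Opti-MEM then treated 2 h at 37 °C with compounds (0.5% DMSO, 0.015% Tween 80). Hoechst-stained, PFA-fixed cells imaged at 20×; nucleus/cytoplasm intensity ratio per well normalized to Torin-1 (100%) and DMSO (0%).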

For experiment [2], the target named is T1, TRPML1 (Homo sapiens, UniProt Q9GZU1).
T1 construct: expressed in transfected cells; host or cells: HEK T-REx cells stably expressing GCaMP6f and TRPML1
In words: Cellular TRPML1 assay (FLIPR, GCaMP6f calcium read-out). The class given is cell-based. The method, boiled down:
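HEK T-REx cells stably expressing TRPML1 and GCaMP6f, seeded 24 h before in Optimem + 0.5% FBS. After ~10 min pre-incubation at room temperature, compounds in Ca2+-free Tyrode's buffer were injected on FLIPR Tetra (final DMSO 0.5%). Calcium fluorescence kinetics followed for 300 s.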

The mark [3] stands for this setting: HEKT-REx/GCaMP6f/TRPML1 cells, FLIPR TETRA, kinetic response over 300 seconds, read-out: TRPML1 FLIPR pEC50 (converted).

Structures are written as SMILES. Like-named read-outs stand apart in the source and are kept apart here.

T1 sequence (Q9GZU1 whole entry): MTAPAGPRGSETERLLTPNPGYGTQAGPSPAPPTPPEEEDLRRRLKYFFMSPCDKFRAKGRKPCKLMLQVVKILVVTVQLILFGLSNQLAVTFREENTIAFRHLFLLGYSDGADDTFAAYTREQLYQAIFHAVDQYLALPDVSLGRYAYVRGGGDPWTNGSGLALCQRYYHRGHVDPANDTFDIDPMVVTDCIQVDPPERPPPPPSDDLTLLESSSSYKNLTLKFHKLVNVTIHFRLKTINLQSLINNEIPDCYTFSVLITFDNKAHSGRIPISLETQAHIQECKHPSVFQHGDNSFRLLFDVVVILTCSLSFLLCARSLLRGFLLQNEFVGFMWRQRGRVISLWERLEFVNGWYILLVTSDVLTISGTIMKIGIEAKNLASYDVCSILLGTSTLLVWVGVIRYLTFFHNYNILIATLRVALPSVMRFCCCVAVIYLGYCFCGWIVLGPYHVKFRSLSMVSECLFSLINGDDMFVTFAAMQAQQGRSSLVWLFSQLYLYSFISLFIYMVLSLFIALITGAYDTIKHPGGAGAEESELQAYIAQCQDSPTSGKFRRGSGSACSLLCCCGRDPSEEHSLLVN

As to `CCC1(CC)CN(c2nc(C(=O)Nc3cc(O)c(OC4CC5CC(C5)C4)c(Cl)c3)c(CC(F)(F)F)o2)C1` (stereo not drawn) [Example 261, N-(4-(bicyclo[3.1.1]heptan-3-yloxy)-3-chloro-5-hydroxyphenyl)-2-(3,3-diethylazetidin-1-yl)-5-(2,2,2-trifluoroethyl)oxazole-4-carboxamide], the EC50 in experiment [1] and in experiment [2] (setting [3]) was 0.01 to 1 µM throughout.

Consider `CCC1(CC)CN(c2nc(C(=O)Nc3cc(C)c(O[C@@H]4C[C@@H]5C[C@@H]5C4)c(O)c3)c(CC(F)(F)F)o2)C1` [Example 262, N-(4-(cis-bicyclo[3.1.0]hexan-3-yloxy)-3-hydroxy-5-methylphenyl)-2-(3,3-diethylazetidin-1-yl)-5-(2,2,2-trifluoroethyl)oxazole-4-carboxamide], for which the EC50 in experiment [1] and in experiment [2] (setting [3]) was 0.01 to 1 µM in each case.

As to `CCC1(CC)CN(c2nc(C(=O)Nc3cc(O)c(OC4CC5CC(C5)C4)c(F)c3)c(CC(F)(F)F)o2)C1` (stereo not drawn) [Example 264, N-(4-(bicyclo[3.1.1]heptan-3-yloxy)-3-fluoro-5-hydroxyphenyl)-2-(3,3-diethylazetidin-1-yl)-5-(2,2,2-trifluoroethyl)oxazole-4-carboxamide], the EC50 in experiment [1] and in experiment [2] (setting [3]) was 0.01 to 1 µM each time.

Take `CCC1(CC)CN(c2nc(C(=O)Nc3cc(O)c(O[C@@H]4C[C@@H]5C[C@@H]5C4)c(F)c3)c(CC(F)(F)F)o2)C1` [Example 269, N-(4-(cis-bicyclo[3.1.0]hexan-3-yloxy)-3-fluoro-5-hydroxyphenyl)-2-(3,3-diethylazetidin-1-yl)-5-(2,2,2-trifluoroethyl)oxazole-4-carboxamide]: the EC50 in experiment [1] and in experiment [2] (setting [3]) was 0.01 to 1 µM in each case.

Regarding `COC1(C)CN(c2nc(C(=O)Nc3cc(O)c(N4C5CCCC4CC5)c(F)c3)c(CC(F)(F)F)o2)C1` [Example 272, N-(4-(8-azabicyclo[3.2.1]octan-8-yl)-3-fluoro-5-hydroxyphenyl)-2-(3-methoxy-3-methylazetidin-1-yl)-5-(2,2,2-trifluoroethyl)oxazole-4-carboxamide], the EC50 in experiment [1] and in experiment [2] was 0.01 to 1 µM in each case.

`CCCc1oc(N2CCC3CCCC32)nc1C(=O)Nc1cc(F)c(OC2CC3C[C@H]3C2)c(F)c1` (stereo partly drawn) [Example 275, N-(4-(cis-bicyclo[3.1.0]hexan-3-yloxy)-3,5-difluorophenyl)-2-(hexahydrocyclopenta[b]pyrrol-1(2H)-yl)-5-propyloxazole-4-carboxamide]: the EC50 in experiment [1] and in experiment [2] (setting [3]) was 0.01 to 1 µM in each case.

With `COC1(C)CN(c2nc(C(=O)Nc3cc(F)c(O[C@@H]4C[C@@H]5C[C@@H]5C4)c(F)c3)c(CCF)o2)C1` [Example 276, N-(4-(cis-bicyclo[3.1.0]hexan-3-yloxy)-3,5-difluorophenyl)-5-(2-fluoroethyl)-2-(3-methoxy-3-methylazetidin-1-yl)oxazole-4-carboxamide], the EC50 in experiment [1] and in experiment [2] (setting [3]) was 0.01 to 1 µM each time.

Consider `CCC1(OC)CN(c2nc(C(=O)Nc3cc(C)c(OC4CC5CC(C5)C4)c(F)c3)c(CCF)o2)C1` (stereo not drawn) [Example 277, N-(4-(bicyclo[3.1.1]heptan-3-yloxy)-3-fluoro-5-methylphenyl)-2-(3-ethyl-3-methoxyazetidin-1-yl)-5-(2-fluoroethyl)oxazole-4-carboxamide], for which the EC50 in experiment [1] and in experiment [2] (setting [3]) was 0.01 to 1 µM each time.

With `Cc1cc(NC(=O)c2nc(N3CCCC3)oc2CCF)cc(F)c1OC1CC2CC(C2)C1` (stereo not drawn) [Example 278, N-(4-(bicyclo[3.1.1]heptan-3-yloxy)-3-fluoro-5-methylphenyl)-5-(2-fluoroethyl)-2-(pyrrolidin-1-yl)oxazole-4-carboxamide], the EC50 in experiment [1] and in experiment [2] (setting [3]) was 0.01 to 1 µM in each case.

Regarding `O=C(Nc1cc(F)c(OC2CC3CC(C3)C2)c(F)c1)c1nc(N2CCCC2)oc1CCF` (stereo not drawn) [Example 279, N-(4-(bicyclo[3.1.1]heptan-3-yloxy)-3,5-difluorophenyl)-5-(2-fluoroethyl)-2-(pyrrolidin-1-yl)oxazole-4-carboxamide], the EC50 in experiment [1] and in experiment [2] (setting [3]) was 0.01 to 1 µM in each case.

Turning to `COC1(C)CN(c2nc(C(=O)Nc3cc(C)c(O[C@@H]4C[C@@H]5C[C@@H]5C4)c(F)c3)c(CCF)o2)C1` [Example 280, N-(4-(cis-bicyclo[3.1.0]hexan-3-yloxy)-3-fluoro-5-methylphenyl)-5-(2-fluoroethyl)-2-(3-methoxy-3-methylazetidin-1-yl)oxazole-4-carboxamide], the EC50 in experiment [1] and in experiment [2] (setting [3]) was 0.01 to 1 µM in each case.

Turning to `COC1(C)CN(c2nc(C(=O)Nc3cc(C)c(OC4CC5CC(C5)C4)c(F)c3)c(CCF)o2)C1` (stereo not drawn) [Example 281, N-(4-(bicyclo[3.1.1]heptan-3-yloxy)-3-fluoro-5-methylphenyl)-5-(2-fluoroethyl)-2-(3-methoxy-3-methylazetidin-1-yl)oxazole-4-carboxamide], the EC50 in experiment [1] and in experiment [2] (setting [3]) was 0.01 to 1 µM in each case.

Turning to `CCC1(CC)CN(c2nc(C(=O)Nc3cc(C)c(OC4CC5CC(C5)C4)c(F)c3)c(CCF)o2)C1` (stereo not drawn) [Example 282, N-(4-(bicyclo[3.1.1]heptan-3-yloxy)-3-fluoro-5-methylphenyl)-2-(3,3-diethylazetidin-1-yl)-5-(2-fluoroethyl)oxazole-4-carboxamide], the EC50 in experiment [1] and in experiment [2] (setting [3]) was 0.01 to 1 µM in each case.

Take `CCC1(CC)CN(c2nc(C(=O)Nc3ccc(OC4CC5CC(C5)C4)c(F)c3)c(CCF)o2)C1` (stereo not drawn) [Example 283, N-(4-(bicyclo[3.1.1]heptan-3-yloxy)-3-fluorophenyl)-2-(3,3-diethylazetidin-1-yl)-5-(2-fluoroethyl)oxazole-4-carboxamide]: the EC50 in experiment [1] and in experiment [2] (setting [3]) was 0.01 to 1 µM each time.

With `O=C(Nc1cc(F)c(OC2CC3CC(C3)C2)c(F)c1)c1nc(N2CCC3(CC3)C2)oc1CCF` (stereo not drawn) [Example 284, N-(4-(bicyclo[3.1.1]heptan-3-yloxy)-3,5-difluorophenyl)-5-(2-fluoroethyl)-2-(5-azaspiro[2.4]heptan-5-yl)oxazole-4-carboxamide], the EC50 in experiment [1] and in experiment [2] (setting [3]) was 0.01 to 1 µM throughout.

As for `CCC1(CC)CN(c2nc(C(=O)Nc3cc(C)c(O[C@@H]4C[C@@H]5C[C@@H]5C4)c(F)c3)c(CCF)o2)C1` [Example 285, N-(4-(cis-bicyclo[3.1.0]hexan-3-yloxy)-3-fluoro-5-methylphenyl)-2-(3,3-diethylazetidin-1-yl)-5-(2-fluoroethyl)oxazole-4-carboxamide], the EC50 in experiment [1] and in experiment [2] (setting [3]) was 0.01 to 1 µM each time.

For the molecule `CCC1(CC)CN(c2nc(C(=O)Nc3cc(F)c(OC4CC5CC(C5)C4)c(F)c3)c(CCF)o2)C1` (stereo not drawn) [Example 286, N-(4-(bicyclo[3.1.1]heptan-3-yloxy)-3,5-difluorophenyl)-2-(3,3-diethylazetidin-1-yl)-5-(2-fluoroethyl)oxazole-4-carboxamide], the EC50 in experiment [1] and in experiment [2] (setting [3]) was 0.01 to 1 µM in each case.

In the case of `CCC1(CC)CN(c2nc(C(=O)Nc3cc(F)c(O[C@@H]4C[C@@H]5C[C@@H]5C4)c(F)c3)c(CCF)o2)C1` [Example 287, N-(4-(cis-bicyclo[3.1.0]hexan-3-yloxy)-3,5-difluorophenyl)-2-(3,3-diethylazetidin-1-yl)-5-(2-fluoroethyl)oxazole-4-carboxamide], the EC50 in experiment [1] and in experiment [2] (setting [3]) was 0.01 to 1 µM throughout.

On to `O=C(Nc1cc(F)c(O[C@@H]2C[C@@H]3C[C@@H]3C2)c(F)c1)c1nc(N2CCC3(CC3)C2)oc1CCF` [Example 288, N-(4-(cis-bicyclo[3.1.0]hexan-3-yloxy)-3,5-difluorophenyl)-5-(2-fluoroethyl)-2-(5-azaspiro[2.4]heptan-5-yl)oxazole-4-carboxamide], for which the EC50 in experiment [1] and in experiment [2] (setting [3]) was 0.01 to 1 µM each time.

`CCC1(CC)CN(c2nc(C(=O)Nc3cc(C)c(N4C5CCCC4CC5)c(F)c3)c(CCF)o2)C1` [Example 289, N-(4-(8-azabicyclo[3.2.1]octan-8-yl)-3-fluoro-5-methylphenyl)-2-(3,3-diethylazetidin-1-yl)-5-(2-fluoroethyl)oxazole-4-carboxamide]: the EC50 in experiment [1] and in experiment [2] was 0.01 to 1 µM throughout.

As for `COC1(C)CN(c2nc(C(=O)Nc3cc(C)c(N4C5CCCC4CC5)c(F)c3)c(CCF)o2)C1` [Example 290], the EC50 in experiment [1] and in experiment [2] was 0.01 to 1 µM each time.

Turning to `CCC1(CC)CN(c2nc(C(=O)Nc3cc(C)c(O[C@@H]4C[C@@H]5C[C@@H]5C4)c(F)c3)c(COC)o2)C1` [Example 293, N-(4-(cis-bicyclo[3.1.0]hexan-3-yloxy)-3-fluoro-5-methylphenyl)-2-(3,3-diethylazetidin-1-yl)-5-(methoxymethyl)oxazole-4-carboxamide], the EC50 in experiment [1] and in experiment [2] (setting [3]) was 0.01 to 1 µM throughout.

For the molecule `COCc1oc(N2CC(C)(OC)C2)nc1C(=O)Nc1cc(C)c(O[C@@H]2C[C@@H]3C[C@@H]3C2)c(F)c1` [Example 294, N-(4-(cis-bicyclo[3.1.0]hexan-3-yloxy)-3-fluoro-5-methylphenyl)-2-(3-methoxy-3-methylazetidin-1-yl)-5-(methoxymethyl)oxazole-4-carboxamide], the EC50 in experiment [1] and in experiment [2] (setting [3]) was 0.01 to 1 µM in each case.

Consider `CCC1(CC)CN(c2nc(C(=O)Nc3cc(F)c(OC4CC5C[C@H]5C4)c(F)c3)c(COC)o2)C1` (stereo partly drawn) [Example 295, N-(4-(cis-bicyclo[3.1.0]hexan-3-yloxy)-3,5-difluorophenyl)-2-(3,3-diethylazetidin-1-yl)-5-(methoxymethyl)oxazole-4-carboxamide], for which the EC50 in experiment [1] and in experiment [2] (setting [3]) was 0.01 to 1 µM each time.
